ChEMBL document CHEMBL1201862, “PubChem BioAssay data set” (2004)
Activity calls are given as the source filed them.

Columns and labels:
[1] = biological target: Peroxisome proliferator-activated receptor gamma/Nuclear receptor coactivator 2 (Homo sapiens, UniProt P37231); assay: (§1) TR-FRET dose response biochemical High Throughput Screening assay for agonists of the steroid receptor coactivator 2 (SRC-2) recruitment by the peroxisome proliferator-activated receptor gamma (PPAR gamma): non-selective agonists. [Related pubchem assays: 1297, 1032 ]; assay type: functional
[2] = biological target: Peroxisome proliferator-activated receptor gamma/Nuclear receptor coactivator 1 (Homo sapiens, UniProt P37231); assay: as §1, with “1 (SRC-1)” for “2 (SRC-2)”, “assays (depositor defined):AID1300, AID1808, AID504735, AID631]” for “assays: 1297, 1032 ]”; assay type: protein assay
[3] = biological target: Peroxisome proliferator-activated receptor gamma/Nuclear receptor coactivator 3 (Homo sapiens, UniProt P37231); assay: as §1, with “3 (SRC-3)” for “2 (SRC-2)”, “1301 (Confirmation screen.), 1048 (Primary screen.)]” for “1297, 1032 ]”; assay type: functional
Troponin, cardiac muscle = Troponin, cardiac muscle (Homo sapiens, UniProt P19429+P45379+P63316); assay: Fluorescence-based biochemical high throughput dose response assay for activators of the calcium sensitivity of cardiac Regulated Thin Filaments (RTF). [Related pubchem assays (depositor defined):AID493008, AID493018, AID504382, AID504383]; assay type: protein-complex assay
[4] = biological target: T1, Tyrosine-protein phosphatase non-receptor type 22 (Homo sapiens, UniProt Q9Y2R2); assay type: functional
[5] = biological target: T1, Tyrosine-protein phosphatase non-receptor type 22; assay type: functional; remark: listed apart in the source
[6] = biological target: Tyrosine-protein phosphatase non-receptor type 7 (Homo sapiens, UniProt P35236); assay type: functional
[7] = biological target: T2, High affinity choline transporter 1 (Homo sapiens, UniProt Q9GZV3); assay: human choline transporter blockers, potency – cell-based, 5-point CRC, membrane potential dye, dose response (AID 504840); assay type: functional
T2 sequence (Q9GZV3 whole entry): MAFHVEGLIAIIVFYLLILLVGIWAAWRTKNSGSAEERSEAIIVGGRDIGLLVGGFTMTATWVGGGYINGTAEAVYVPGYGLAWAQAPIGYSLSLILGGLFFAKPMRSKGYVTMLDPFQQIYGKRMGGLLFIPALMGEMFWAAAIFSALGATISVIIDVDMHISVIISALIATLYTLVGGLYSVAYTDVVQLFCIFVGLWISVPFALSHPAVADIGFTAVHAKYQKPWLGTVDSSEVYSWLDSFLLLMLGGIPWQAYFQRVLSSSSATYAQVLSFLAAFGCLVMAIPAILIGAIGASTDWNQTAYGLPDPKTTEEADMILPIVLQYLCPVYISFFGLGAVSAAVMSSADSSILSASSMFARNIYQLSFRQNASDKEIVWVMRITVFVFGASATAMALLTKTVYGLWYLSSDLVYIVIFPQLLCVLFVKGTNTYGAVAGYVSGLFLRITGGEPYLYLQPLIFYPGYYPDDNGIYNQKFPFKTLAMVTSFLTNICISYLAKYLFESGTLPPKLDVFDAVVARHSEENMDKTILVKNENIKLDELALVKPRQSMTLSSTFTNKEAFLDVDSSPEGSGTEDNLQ

[8] = biological target: T3, Replicative DNA helicase DnaB (Mycobacterium tuberculosis, UniProt P9WMR3); assay: DnaB intein splicing inhibitors, dose response, biochemical, cell-free fluorescence (AID 449749); assay type: functional
T3 sequence (P9WMR3 whole entry): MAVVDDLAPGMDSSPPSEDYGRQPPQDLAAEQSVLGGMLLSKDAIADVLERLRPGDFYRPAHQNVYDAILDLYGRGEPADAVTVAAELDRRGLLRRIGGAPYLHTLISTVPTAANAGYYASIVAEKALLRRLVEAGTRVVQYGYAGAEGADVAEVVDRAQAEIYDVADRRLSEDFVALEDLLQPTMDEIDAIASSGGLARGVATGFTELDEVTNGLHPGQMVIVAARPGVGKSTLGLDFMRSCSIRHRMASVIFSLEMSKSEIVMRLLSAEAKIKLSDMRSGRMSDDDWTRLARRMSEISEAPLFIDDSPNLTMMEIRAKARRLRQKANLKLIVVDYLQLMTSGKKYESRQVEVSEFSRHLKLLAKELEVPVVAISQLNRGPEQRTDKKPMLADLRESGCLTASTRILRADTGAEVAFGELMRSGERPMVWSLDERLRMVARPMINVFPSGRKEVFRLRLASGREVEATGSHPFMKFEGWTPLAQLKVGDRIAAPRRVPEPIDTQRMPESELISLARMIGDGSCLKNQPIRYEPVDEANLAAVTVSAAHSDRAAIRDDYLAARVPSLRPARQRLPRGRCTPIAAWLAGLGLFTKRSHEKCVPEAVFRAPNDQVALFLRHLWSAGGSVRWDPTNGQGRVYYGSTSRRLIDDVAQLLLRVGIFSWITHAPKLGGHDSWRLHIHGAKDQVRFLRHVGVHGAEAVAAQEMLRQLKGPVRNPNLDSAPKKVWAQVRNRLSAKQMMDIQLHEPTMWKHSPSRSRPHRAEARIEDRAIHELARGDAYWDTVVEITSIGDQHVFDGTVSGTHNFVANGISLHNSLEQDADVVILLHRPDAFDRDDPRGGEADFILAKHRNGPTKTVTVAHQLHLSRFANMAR

[9] = biological target: Protein-arginine deiminase type-4 (Homo sapiens, UniProt Q9UM07); assay: IC50 against protein arginine deiminase 4 – biochemical, fluorescence readout, dose response (AID 492970)
Protein RecA = biological target: T4, Protein RecA (Mycobacterium tuberculosis, UniProt P9WHJ3); assay: Fluorescence Cell-Free Homogeneous Dose Retest to Identify Inhibitors of RecA-Intein Splicing Activity. [Related pubchem assays (depositor defined):AID2097, AID2223, AID489010, AID492950]; assay type: functional
T4 sequence (P9WHJ3 whole entry): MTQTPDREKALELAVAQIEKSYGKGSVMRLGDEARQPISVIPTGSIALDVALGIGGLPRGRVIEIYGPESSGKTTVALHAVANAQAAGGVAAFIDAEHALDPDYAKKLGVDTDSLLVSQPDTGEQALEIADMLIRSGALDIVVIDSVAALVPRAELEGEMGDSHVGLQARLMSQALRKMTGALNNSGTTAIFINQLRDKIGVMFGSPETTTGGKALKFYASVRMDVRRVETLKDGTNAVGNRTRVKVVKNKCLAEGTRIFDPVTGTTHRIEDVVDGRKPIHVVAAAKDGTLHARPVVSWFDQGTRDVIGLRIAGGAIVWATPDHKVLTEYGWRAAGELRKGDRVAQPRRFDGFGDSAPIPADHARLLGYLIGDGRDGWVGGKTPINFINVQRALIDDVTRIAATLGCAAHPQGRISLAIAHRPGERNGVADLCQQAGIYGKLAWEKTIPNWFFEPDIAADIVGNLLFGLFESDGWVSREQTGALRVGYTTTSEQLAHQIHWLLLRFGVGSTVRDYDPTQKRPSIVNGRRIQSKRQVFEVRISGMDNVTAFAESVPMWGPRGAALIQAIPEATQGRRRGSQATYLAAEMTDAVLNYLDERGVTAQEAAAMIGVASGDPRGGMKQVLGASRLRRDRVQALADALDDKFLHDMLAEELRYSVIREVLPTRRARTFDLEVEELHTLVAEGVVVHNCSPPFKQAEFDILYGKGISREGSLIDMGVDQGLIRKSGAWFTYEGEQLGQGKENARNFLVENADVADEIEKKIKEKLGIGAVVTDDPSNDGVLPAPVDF

[10] = biological target: T5, RNA-binding protein pos-1 (Caenorhabditis elegans, UniProt G5EF15); assay: disruptors of C. elegans POS-1 RNA interaction – biochemical, fluorescence polarization, dose response (AID 1964);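 note: purified POS-1 fused to maltose binding protein made in E. coli; potency of compounds blocking POS-1 binding to fluorescent RNA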
T5 sequence (G5EF15 whole entry): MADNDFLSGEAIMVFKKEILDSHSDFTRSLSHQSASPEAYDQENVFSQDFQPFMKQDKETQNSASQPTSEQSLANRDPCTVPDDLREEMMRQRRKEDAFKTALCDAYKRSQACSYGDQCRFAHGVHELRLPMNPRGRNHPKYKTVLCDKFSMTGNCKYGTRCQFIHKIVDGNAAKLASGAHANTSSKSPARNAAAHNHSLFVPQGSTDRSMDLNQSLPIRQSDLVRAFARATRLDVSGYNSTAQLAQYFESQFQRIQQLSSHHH

[11] = biological target: T6, Sphingosine 1-phosphate receptor 4 (Homo sapiens, UniProt O95977); assay: Fluorescence dose response cell-based high throughput screening assay for agonists of the Sphingosine 1-Phosphate Receptor 4 (S1P4). [Related pubchem assays: 1509 (Primary screen.), 1523 (Confirmation screen in triplicates.)]; assay type: functional
T6 sequence (O95977 whole entry): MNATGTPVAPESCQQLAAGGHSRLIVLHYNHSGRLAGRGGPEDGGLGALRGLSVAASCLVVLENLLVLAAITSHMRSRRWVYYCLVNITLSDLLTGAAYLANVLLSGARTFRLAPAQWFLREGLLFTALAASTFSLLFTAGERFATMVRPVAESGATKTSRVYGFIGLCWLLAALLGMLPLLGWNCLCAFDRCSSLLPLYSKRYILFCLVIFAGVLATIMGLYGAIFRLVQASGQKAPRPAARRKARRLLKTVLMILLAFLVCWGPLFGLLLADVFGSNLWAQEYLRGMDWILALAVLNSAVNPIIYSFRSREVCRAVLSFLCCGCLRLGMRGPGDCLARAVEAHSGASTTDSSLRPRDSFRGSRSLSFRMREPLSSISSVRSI

[12] = biological target: Sphingosine 1-phosphate receptor 1 (Homo sapiens, UniProt P21453); assay: Fluorescence-based counterscreen assay for S1P4 agonists: Cell-based dose response high throughput screening assay to identify agonists of the Sphingosine 1-Phosphate Receptor 1 (S1P1). [Related pubchem assays (depositor defined):AID1509, AID1523, AID1801, AID463107, AID463118, AID463119, AID463122, AID463123, AID463129, AID463225, AID504400, AID504460]; assay type: functional
[13] = biological target: T7, Zinc finger protein mex-5 (Caenorhabditis elegans, UniProt Q9XUB2); assay: potency of MEX-5 RNA-binding blockers – biochemical, C. elegans, fluorescence polarization, dose response (AID 1960)
T7 sequence (Q9XUB2 whole entry): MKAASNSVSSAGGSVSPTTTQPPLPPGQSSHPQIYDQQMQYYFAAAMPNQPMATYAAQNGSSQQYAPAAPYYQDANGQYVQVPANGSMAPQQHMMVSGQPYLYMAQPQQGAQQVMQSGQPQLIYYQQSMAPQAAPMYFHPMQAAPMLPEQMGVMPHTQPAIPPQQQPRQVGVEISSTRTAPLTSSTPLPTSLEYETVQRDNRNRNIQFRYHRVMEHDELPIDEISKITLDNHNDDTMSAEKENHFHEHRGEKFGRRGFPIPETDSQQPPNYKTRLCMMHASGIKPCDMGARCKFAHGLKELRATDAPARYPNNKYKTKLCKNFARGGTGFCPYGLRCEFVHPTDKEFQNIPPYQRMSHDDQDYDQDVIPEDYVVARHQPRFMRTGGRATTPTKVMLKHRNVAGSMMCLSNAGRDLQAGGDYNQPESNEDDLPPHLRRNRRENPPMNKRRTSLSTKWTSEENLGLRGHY

With `CNC(=S)N1N=C(c2ccc(Br)cc2)CC1c1ccc(N(C)C)cc1` (stereo not given) the EC50 [1] was 14 µM (not active), the EC50 [2] was 11.6 µM (inactive) and the EC50 [3] was > 79.4 µM (not active). For the same molecule, the EC50 (Troponin, cardiac muscle) was 40 µM (inactive).

`Cc1occc1C(=O)NNS(=O)(=O)c1ccc(Cl)cc1` was tested, and the IC50 [4] was > 79.4 µM (inactive), the IC50 [5] was > 79.4 µM (inactive) and the IC50 [6] was > 79.4 µM (inactive). The IC50 [7] was 13.5 µM (active).

For `COC(=O)c1nc(O)c2ccccc2c1O`, the AC50 [8] was 5.62 µM (active), the IC50 [9] was 42 µM (inactive) and the EC50 (Protein RecA) was 3.57 µM (active).

For `CCOC(=O)c1c(-n2c(C)cc(C=C3C(=O)NC(=O)NC3=O)c2C)sc2c1CCCC2`, the EC50 [10] was > 300 µM (inconclusive), the EC50 [11] was > 16.6 µM (not active) and the EC50 [12] was > 49.8 µM (inactive). The EC50 [13] was > 300 µM (inconclusive).
